Results from PubChem BioAssay (NCI).
Values joined by “and” are separate entries in the source; they are usually repeats but may differ in a detail not shown here. Equal values may be shown once.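 Exposure lasted 48 hours, with cells grown in 96-well plates and compounds tested at five concentrations. GI50 is the concentration that inhibits growth by half. TGI denotes the concentration required for complete inhibition of growth.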

Experiments:
Test in all cases: inhibition of tumour cell growth, NCI panel, 48 h
HCT-116 colon = system: HCT-116 colon
HT29 colon = system: HT29 colon
MCF7 breast = system: MCF7 breast
MDA-MB-231 breast = system: MDA-MB-231 breast
MOLT-4 leukemia = system: MOLT-4 leukemia
NCI-H226 lung = system: NCI-H226 lung
OVCAR-3 ovarian = system: OVCAR-3 ovarian
SK-MEL-28 melanoma = system: SK-MEL-28 melanoma
UO-31 renal = system: UO-31 renal
KM12 colon = system: KM12 colon

| Compound | TGI (HCT-116 colon) | TGI (HT29 colon) | TGI (MCF7 breast) | TGI (MDA-MB-231 breast) | TGI (MOLT-4 leukemia) | TGI (NCI-H226 lung) | TGI (OVCAR-3 ovarian) | TGI (SK-MEL-28 melanoma) | TGI (UO-31 renal) | TGI (KM12 colon) | GI50 (HCT-116 colon) | GI50 (HT29 colon) | GI50 (KM12 colon) | GI50 (MCF7 breast) | GI50 (MOLT-4 leukemia) | GI50 (NCI-H226 lung) | GI50 (OVCAR-3 ovarian) | GI50 (SK-MEL-28 melanoma) | GI50 (UO-31 renal) |
| --- | --- | --- | --- | --- | --- | --- | --- | --- | --- | --- | --- | --- | --- | --- | --- | --- | --- | --- | --- |
| CCCCN=C(OC1C=CCCC1)SC (centres undefined) | > 100 µM | > 100 µM | > 100 µM | > 100 µM | > 100 µM | > 100 µM | > 100 µM | > 100 µM | > 100 µM | – | – | – | – | – | – | – | – | – | – |
| Cn1c(=O)c2[nH]cnc2n(C)c1=O | > 100 µM | – | > 100 µM | > 100 µM | > 100 µM | > 100 µM | > 100 µM | > 100 µM | > 100 µM | > 100 µM | – | – | – | – | – | – | – | – | – |
| C=C1C(=O)O[C@H]2[C@@H](O)[C@H](C)CCC/C(C)=C/CC[C@@]3(C)O[C@@H]3C[C@@H]12 | 12.4 µM | 28.7 µM | 36.4 µM | 31.7 µM | – | 3.34 µM | 31.1 µM | 33.5 µM | 18.2 µM | 33.1 µM | – | – | – | – | – | – | – | – | – |
| CC1Oc2c(c(O)cc3oc(=O)cc(-c4ccccc4)c23)C(=O)C1C (centres undefined) | – | – | – | – | > 100 µM | > 100 µM | > 100 µM | > 100 µM | > 100 µM | – | – | – | – | – | – | – | – | – | – |
| Fc1ccccc1C1SCC2=Nc3ccccc3CN21 (centres undefined) | > 100 µM | > 100 µM | > 100 µM | > 100 µM | > 100 µM | – | > 100 µM | > 100 µM | > 100 µM | > 100 µM | – | – | – | – | – | – | – | – | – |
| CN(C)CCCN1C(=O)N(CCCN(C)C)c2c3cc(O)ccc3nc3c([N+](=O)[O-])ccc1c23 | 38.2 µM | 27.2 µM | 40.4 µM | 28.3 µM | – | 61.7 µM | 67.6 µM | > 100 µM | 63.6 µM | 29.8 µM | – | – | – | – | – | – | – | – | – |
| O=c1[nH]nc(Cc2ccc([N+](=O)[O-])cc2)[nH]1 | > 100 µM | > 100 µM | > 100 µM | – | > 100 µM | > 100 µM | > 100 µM | > 100 µM | > 100 µM | > 100 µM | – | – | – | – | – | – | – | – | – |
| CN1C(C(=O)Nc2ccccn2)=C(O)c2ccccc2S1(=O)=O | > 100 µM | > 100 µM | > 100 µM | – | > 100 µM | > 100 µM | > 100 µM | > 100 µM | > 100 µM | > 100 µM | – | – | – | – | – | – | – | – | – |
| CNc1ccc([N+](=O)[O-])cc1C(=O)N1CCC[C@H]1CO | > 100 µM | > 100 µM | > 100 µM | > 100 µM | > 100 µM | > 100 µM | – | > 100 µM | > 100 µM | > 100 µM | – | – | – | – | – | – | – | – | – |
| COc1ccc(/C=C(\C#N)c2nc(-c3cc4ccccc4oc3=O)cs2)cc1 | > 100 µM | > 100 µM | > 100 µM | 31 µM | > 100 µM | > 100 µM | – | > 100 µM | 57.4 µM | > 100 µM | – | – | – | – | – | – | – | – | – |
| COc1ccc(CNc2cnc3cc(N)ccc3n2)cc1OC | > 100 µM | > 100 µM | – | – | > 100 µM | > 100 µM | > 100 µM | > 100 µM | > 100 µM | > 100 µM | – | – | – | – | – | – | – | – | – |
| C=CC(=O)N1C/C(=C\c2ccc(F)cc2)C(=O)/C(=C/c2ccc(F)cc2)C1 | 0.105 µM | 0.285 µM | 1.42 µM | – | – | 8.78 µM | 1.19 µM | – | 2.17 µM | 0.434 µM | – | – | – | – | – | – | – | – | – |
| O.O=[Se](=O)(O)O.[NH-]C1CCCCC1[NH-].[Pt+2] (centres undefined) | > 100 µM | > 100 µM | > 47.1 µM | – | > 100 µM | 25.7 µM | > 81.9 µM | > 100 µM | > 68 µM | > 100 µM | 4.36 µM | 4.62 µM | 47.2 µM | 3.49 µM | 2.79 µM | 5.21 µM | 21.2 µM | 10.1 µM | 7.66 µM |
| O=C1C(=O)C(CCCO)(CCCO)CCCCCCCCC1(CCCO)CCCO | > 100 µM | > 100 µM | > 100 µM | – | – | > 100 µM | > 100 µM | > 100 µM | 60.4 µM | > 100 µM | – | – | – | – | – | – | – | – | – |
| CCCCC[C@@H]1OC(=O)[C@@]2(CC3c4ccccc4C2c2ccccc23)[C@H]1C(=O)OC | > 100 µM | > 100 µM | > 100 µM | > 100 µM | – | – | > 100 µM | – | > 100 µM | > 100 µM | – | – | – | – | – | – | – | – | – |
| COc1ccc(/C(Cl)=C(\C=O)c2ccc(Cl)cc2)cc1 | 20.8 µM | 15.6 µM | – | – | 7.81 µM | 48.1 µM | 32.1 µM | – | 33.1 µM | – | – | – | – | – | – | – | – | – | – |
| CC(=O)Nc1oc(C)nc1C#N | > 100 µM | > 100 µM | > 100 µM | > 100 µM | > 100 µM | – | – | > 100 µM | – | > 100 µM | – | – | – | – | – | – | – | – | – |
| Oc1cc(Br)cc2cc(Br)cnc12 | > 100 µM | > 100 µM | > 100 µM | 88.2 µM | 16.1 µM | 86.5 µM | – | > 100 µM | 29.4 µM | > 100 µM | – | – | – | – | – | – | – | – | – |
| O=C(c1ccccc1)c1ccc2c(c1)N=C(c1ccc(Cl)c(Cl)c1)CC(c1ccc3ccccc3c1)N2 (centres undefined) | > 100 µM | > 100 µM | – | – | > 100 µM | > 100 µM | – | > 100 µM | > 100 µM | > 100 µM | – | – | – | – | – | – | – | – | – |
| C#Cc1ccccc1C(=O)OC | > 100 µM | > 100 µM | – | – | > 100 µM | > 100 µM | > 100 µM | > 100 µM | > 100 µM | > 100 µM | – | – | – | – | – | – | – | – | – |
| Nc1ncnc2c(C3OC(CO)C(O)C3O)c[nH]c12 (centres undefined) | 0.16 µM | 0.343 µM and 1.21 µM | 0.0807 µM | > 100 µM | – | 0.271 µM and 0.159 µM | 0.0342 µM and 0.124 µM | 0.51 µM and 0.734 µM | 0.118 µM and 0.258 µM | 0.396 µM and 0.465 µM | – | – | – | – | – | 0.0189 µM | 0.0116 µM | 0.0452 µM | – |
| C[N+](C)(C)c1nc(N)nc2c1ncn2C1OC(CO)C(O)C1O (centres undefined) | > 100 µM | > 100 µM | > 100 µM | > 100 µM | > 100 µM | – | > 100 µM | > 100 µM | > 100 µM | > 100 µM | – | – | – | – | – | – | – | – | – |
| COC(=O)[C@]12CCC(=O)N1[C@H](C(=O)O)Cc1c2[nH]c2ccccc12 | > 100 µM | > 100 µM | > 100 µM | > 100 µM | > 100 µM | – | > 100 µM | > 100 µM | > 100 µM | > 100 µM | – | – | – | – | – | – | – | – | – |
| O=[N+]([O-])c1ccc(-c2nc3ccccc3o2)cc1 | > 100 µM | – | > 100 µM | – | > 100 µM | > 100 µM | > 100 µM | > 100 µM | > 100 µM | > 100 µM | – | – | – | – | – | – | – | – | – |
